Reference: ChEMBL document CHEMBL1909046, “DrugMatrix in vitro pharmacology data”
Where a SMILES comes first, the peptide text is derived from it. Bridges are numbered along the chain shown (N, C = ends). [ ]: non-standard residue; d: D form. The star is where a group is joined. Threoninol(2S,3R) = C[C@@H](O)[C@H](CO)N*

Tests used:
[1] = DRUGMATRIX: Sigma2 radioligand binding (ligand: [3H] Ifenprodil); assay type: cell membranes, Rattus norvegicus, Wistar, Brain, Membrane; settings: Not Active = under 50% inhibition at 10 µM
Substance-P receptor = Substance-P receptor (Homo sapiens, UniProt P25103); assay type: cell membranes, Membrane; settings: cho; also: in other assays of this panel Not Active means under 50% inhibition at 10 µM
Chain of Substance-P receptor (P25103 whole entry): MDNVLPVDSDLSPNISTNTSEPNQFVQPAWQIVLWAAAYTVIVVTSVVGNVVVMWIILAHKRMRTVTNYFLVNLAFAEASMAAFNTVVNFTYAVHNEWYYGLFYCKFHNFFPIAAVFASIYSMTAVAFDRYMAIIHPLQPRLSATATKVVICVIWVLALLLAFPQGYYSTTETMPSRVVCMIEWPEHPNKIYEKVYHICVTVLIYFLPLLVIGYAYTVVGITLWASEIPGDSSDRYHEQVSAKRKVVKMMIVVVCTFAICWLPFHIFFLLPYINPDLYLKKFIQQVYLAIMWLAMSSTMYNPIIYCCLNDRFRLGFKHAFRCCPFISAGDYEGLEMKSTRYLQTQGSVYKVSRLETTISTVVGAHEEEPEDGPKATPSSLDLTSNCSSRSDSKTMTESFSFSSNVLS

Substance-K receptor = molecular target: T1, Substance-K receptor (Homo sapiens, UniProt P21452); assay type: cell membranes, CHO, Membrane; settings: cho; also: in other assays of this panel Not Active means under 50% inhibition at 10 µM
T1 sequence (P21452 whole entry): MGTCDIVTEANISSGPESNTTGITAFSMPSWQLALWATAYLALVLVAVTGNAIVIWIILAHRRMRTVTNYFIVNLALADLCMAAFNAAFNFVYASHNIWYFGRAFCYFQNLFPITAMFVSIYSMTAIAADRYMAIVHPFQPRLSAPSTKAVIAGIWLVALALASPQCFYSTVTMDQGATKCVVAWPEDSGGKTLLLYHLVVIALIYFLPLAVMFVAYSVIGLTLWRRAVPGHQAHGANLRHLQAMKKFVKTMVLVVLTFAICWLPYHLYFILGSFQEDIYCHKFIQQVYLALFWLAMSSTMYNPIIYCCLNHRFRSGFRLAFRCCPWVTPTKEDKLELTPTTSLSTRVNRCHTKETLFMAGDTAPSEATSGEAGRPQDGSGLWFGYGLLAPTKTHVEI

[2] = molecular target: C-C chemokine receptor type 2 (Homo sapiens, UniProt P41597); assay type: cell membranes, CHO-K1, Membrane; also: in other assays of this panel Not Active means under 50% inhibition at 10 µM
Chain of C-C chemokine receptor type 2 (P41597 whole entry): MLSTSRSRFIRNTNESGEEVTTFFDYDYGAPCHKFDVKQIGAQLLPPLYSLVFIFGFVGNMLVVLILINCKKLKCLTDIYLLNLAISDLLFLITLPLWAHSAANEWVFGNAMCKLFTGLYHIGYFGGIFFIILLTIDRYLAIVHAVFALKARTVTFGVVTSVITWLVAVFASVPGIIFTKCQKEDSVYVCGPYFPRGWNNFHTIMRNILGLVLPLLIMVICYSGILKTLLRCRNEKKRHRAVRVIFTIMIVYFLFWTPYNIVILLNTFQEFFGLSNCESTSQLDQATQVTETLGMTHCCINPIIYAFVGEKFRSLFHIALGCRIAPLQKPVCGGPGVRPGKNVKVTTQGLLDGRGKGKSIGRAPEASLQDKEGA

Interstitial collagenase = molecular target: T2, Interstitial collagenase (Homo sapiens, UniProt P03956); experiment: biochemical; assay type: tissue-based, Rheumatoid synovial fibroblasts;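 also: MMP-1 enzyme inhibition assay using a peptide substrate; in other assays of this panel Not Active means under 50% inhibition at 10 µM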
T2 sequence (P03956 whole entry): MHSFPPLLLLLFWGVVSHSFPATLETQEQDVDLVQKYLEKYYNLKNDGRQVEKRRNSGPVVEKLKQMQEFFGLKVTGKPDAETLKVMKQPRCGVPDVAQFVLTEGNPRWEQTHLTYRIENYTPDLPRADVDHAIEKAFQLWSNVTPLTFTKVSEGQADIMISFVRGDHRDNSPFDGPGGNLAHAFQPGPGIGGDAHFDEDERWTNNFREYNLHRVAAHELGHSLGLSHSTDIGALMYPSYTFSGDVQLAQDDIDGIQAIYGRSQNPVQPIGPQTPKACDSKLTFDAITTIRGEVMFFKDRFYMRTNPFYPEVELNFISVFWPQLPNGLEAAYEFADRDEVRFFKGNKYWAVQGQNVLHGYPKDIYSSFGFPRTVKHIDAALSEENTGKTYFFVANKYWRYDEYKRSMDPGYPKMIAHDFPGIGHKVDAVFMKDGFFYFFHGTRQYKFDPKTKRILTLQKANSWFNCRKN

Cytochrome P450 3A4 = Cytochrome P450 3A4 (Homo sapiens, UniProt P08684); settings: bti-tn-5b1-4; also: in other assays of this panel Not Active means under 50% inhibition at 10 µM
Chain of Cytochrome P450 3A4 (P08684 whole entry): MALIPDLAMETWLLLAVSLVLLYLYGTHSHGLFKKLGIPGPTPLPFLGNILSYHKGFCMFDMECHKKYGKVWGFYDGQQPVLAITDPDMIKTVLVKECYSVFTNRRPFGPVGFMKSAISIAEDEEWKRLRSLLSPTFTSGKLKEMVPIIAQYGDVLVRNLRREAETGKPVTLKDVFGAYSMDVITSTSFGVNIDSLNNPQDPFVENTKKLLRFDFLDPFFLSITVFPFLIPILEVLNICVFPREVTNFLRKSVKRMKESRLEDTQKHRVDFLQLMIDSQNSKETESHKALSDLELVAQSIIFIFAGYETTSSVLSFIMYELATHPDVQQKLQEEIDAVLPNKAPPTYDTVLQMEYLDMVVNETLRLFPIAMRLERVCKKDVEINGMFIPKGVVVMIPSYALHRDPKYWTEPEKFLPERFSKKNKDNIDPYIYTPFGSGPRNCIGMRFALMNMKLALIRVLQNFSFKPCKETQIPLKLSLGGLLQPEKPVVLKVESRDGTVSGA

| Compound | IC50 [1] | Ki [1] | IC50 (Substance-P receptor) | IC50 (Substance-K receptor) | IC50 ([2]; cho-k1) | IC50 (Interstitial collagenase) | IC50 (Cytochrome P450 3A4) | Ki (Cytochrome P450 3A4) | IC50 ([1]; read-out: IC50) [nM] | Ki ([1]; read-out: Ki) [nM] | IC50 ([2]; read-out: IC50) [nM] | Ki ([2]; read-out: Ki) [nM] | Ki (Substance-P receptor) | Ki (Substance-K receptor) | Ki ([2]; cho-k1) | Ki (Interstitial collagenase) |
| --- | --- | --- | --- | --- | --- | --- | --- | --- | --- | --- | --- | --- | --- | --- | --- | --- |
| COc1ccccc1C(=O)N1CCC(Cc2ccccc2)CC1 | Not Active | Not Active | Not Active | Not Active | Not Active | Not Active | Not Active | Not Active |  |  |  |  |  |  |  |  |
| Cc1ccccc1C(=O)N1CCC(Cc2ccccc2)CC1 | Not Active | Not Active | Not Active | Not Active | Not Active | Not Active | Not Active | Not Active |  |  |  |  |  |  |  |  |
| O=C1CC[C@H](N2C(=O)c3ccccc3C2=O)C(=O)N1 | Not Active | Not Active | Not Active | Not Active | Not Active | Not Active | Not Active | Not Active |  |  |  |  |  |  |  |  |
| N=C(Nc1ccccc1)Nc1ccccc1 |  |  | Not Active | Not Active | Not Active | Not Active | Not Active | Not Active | 2640 | 1620 |  |  |  |  |  |  |
| C[C@@H](O)[C@H](CO)NC(=O)[C@@H]1CSSC[C@H](NC(=O)[C@H](N)Cc2ccccc2)C(=O)N[C@@H](Cc2ccccc2)C(=O)N[C@H](Cc2c[nH]c3ccccc23)C(=O)N[C@@H](CCCCN)C(=O)N[C@@H]([C@@H](C)O)C(=O)N1 (H-[dF]CF[dW]KTC-{Threoninol(2S,3R)}; disulfide 2-7) | Not Active | Not Active | Not Active | Not Active | Not Active | Not Active | Not Active | Not Active |  |  |  |  |  |  |  |  |
| S=C=Nc1cccc2ccccc12 [1-NAPHTHYLISOTHIOCYANATE] | Not Active | Not Active | Not Active | Not Active |  | Not Active | Not Active | Not Active |  |  | 6700 | 2590 |  |  |  |  |
| C[C@](O)(CS(=O)(=O)c1ccc(F)cc1)C(=O)Nc1ccc(C#N)c(C(F)(F)F)c1 [(R)-BICALUTAMIDE] | Not Active | Not Active | Not Active | Not Active | Not Active | Not Active | Not Active | Not Active |  |  |  |  |  |  |  |  |
| CCCC(=O)Nc1ccc(OCC(O)CNC(C)C)c(C(C)=O)c1 (stereo not given) [ACEBUTOLOL] | Not Active | Not Active | Not Active | Not Active | Not Active | Not Active | Not Active | Not Active |  |  |  |  |  |  |  |  |
| CC(=O)Nc1ccc(O)cc1 [ACETAMINOPHEN] | Not Active | Not Active | Not Active | Not Active | Not Active | Not Active | Not Active | Not Active |  |  |  |  |  |  |  |  |
| COc1cc2c(c3oc(=O)c4c(c13)CCC4=O)[C@@H]1C=CO[C@@H]1O2 [AFLATOXIN] | Not Active | Not Active | Not Active | Not Active | Not Active | Not Active | Not Active | Not Active |  |  |  |  | Not Active | Not Active | Not Active | Not Active |
| N=C(N)NC(=O)c1nc(Cl)c(N)nc1N [AMILORIDE] | Not Active | Not Active | Not Active | Not Active | Not Active | Not Active | Not Active | Not Active |  |  |  |  |  |  |  |  |
| Cc1cc(=O)n(-c2ccccc2)n1C [ANTIPYRINE] | Not Active | Not Active | Not Active | Not Active | Not Active | Not Active | Not Active | Not Active |  |  |  |  |  |  |  |  |
| CN1C(=O)COc2c(C(=O)NC3CN4CCC3CC4)cc(Cl)cc21 (stereo not given) [AZASETRON] | Not Active | Not Active | Not Active | Not Active | Not Active | Not Active | Not Active | Not Active |  |  |  |  |  |  |  |  |
| C[C@H]1C[C@H]2[C@@H]3CCC4=CC(=O)C=C[C@]4(C)[C@@]3(Cl)[C@@H](O)C[C@]2(C)[C@@]1(O)C(=O)CO [BECLOMETHASONE] | Not Active | Not Active | Not Active | Not Active | Not Active | Not Active | Not Active | Not Active |  |  |  |  |  |  |  |  |
| CCOC(=O)[C@H](CCc1ccccc1)N[C@H]1CCc2ccccc2N(CC(=O)O)C1=O [BENAZEPRIL] | Not Active | Not Active | Not Active | Not Active | Not Active | Not Active | Not Active | Not Active |  |  |  |  |  |  |  |  |
